Data set [1] in a line: Oral bioavailability in CD16 mouse at 10 mg/kg. It counts as ADME, organism-based. The settings on record: in vivo.
Data set [2] is described as follows: Drug uptake in CD16 mouse brain at 3 mg/kg, po after 30 mins by LC-MS/MS analysis. The class given is ADME, organism-based. As to conditions: read-out: Drug uptake.
For data set [3], the target named is Glycogen synthase kinase-3 beta (Homo sapiens, UniProt P49841). Briefly: Inhibition of recombinant human GSK3beta using prephosphorylated polypeptide as substrate preincubated for 30 mins followed by addition of kinase-glo stop solution measured after 10 mins by Kinase-Glo luminescence assay.
Chain of Glycogen synthase kinase-3 beta (P49841 whole entry): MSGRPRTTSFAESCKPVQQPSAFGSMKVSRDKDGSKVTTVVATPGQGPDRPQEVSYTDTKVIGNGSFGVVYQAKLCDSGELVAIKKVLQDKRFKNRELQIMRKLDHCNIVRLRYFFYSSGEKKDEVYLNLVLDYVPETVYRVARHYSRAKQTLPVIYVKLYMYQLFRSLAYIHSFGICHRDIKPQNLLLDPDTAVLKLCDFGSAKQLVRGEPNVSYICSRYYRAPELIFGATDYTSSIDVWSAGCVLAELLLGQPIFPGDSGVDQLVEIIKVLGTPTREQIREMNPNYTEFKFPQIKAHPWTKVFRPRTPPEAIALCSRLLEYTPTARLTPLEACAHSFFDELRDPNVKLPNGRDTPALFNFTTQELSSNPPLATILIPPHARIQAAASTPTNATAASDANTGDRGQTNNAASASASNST
The target in data set [4] is T1, Beta-secretase 1 (Homo sapiens, UniProt P56817). Briefly: Inhibition of human BACE-1 preincubated for 1 hr followed by substrate addition measured after 60 mins by FRET assay.
T1 sequence (P56817 whole entry): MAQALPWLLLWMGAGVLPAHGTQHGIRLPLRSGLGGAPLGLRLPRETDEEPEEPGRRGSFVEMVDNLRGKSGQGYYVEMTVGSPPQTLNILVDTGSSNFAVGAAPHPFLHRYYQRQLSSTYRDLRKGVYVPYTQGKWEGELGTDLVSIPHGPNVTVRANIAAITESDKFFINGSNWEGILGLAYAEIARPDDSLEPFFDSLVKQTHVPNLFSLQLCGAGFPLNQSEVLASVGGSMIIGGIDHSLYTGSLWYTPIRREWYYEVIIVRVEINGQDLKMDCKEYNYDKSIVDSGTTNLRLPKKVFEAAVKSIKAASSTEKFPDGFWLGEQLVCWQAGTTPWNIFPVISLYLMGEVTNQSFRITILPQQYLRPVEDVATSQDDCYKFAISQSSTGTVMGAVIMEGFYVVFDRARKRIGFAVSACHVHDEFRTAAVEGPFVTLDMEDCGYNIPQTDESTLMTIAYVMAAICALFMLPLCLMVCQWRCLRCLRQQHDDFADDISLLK
Data set [5] concerns the target T1, Beta-secretase 1.
Description: Inhibition of BACE-1 (unknown origin) using APP derived polypeptide harboring Lys-Met/Asn-Leu mutation as substrate by FRET assay
Data set [6] concerns the target T1, Beta-secretase 1. The data set is described as follows: Inhibition of BACE-1 (unknown origin).

For the compound `NC1=NC(c2ccc(F)cc2)NC(=O)N1` (stereo not drawn), in data set [1], the bioavailability was 66%. For the same compound, in data set [2], the concentration at 0.5 h is 620 nM. Besides, the IC50 in data set [3] is 14.7 µM. `OC1=C2Nc3ccccc3N=C2OC1c1c[nH]c2ccc(COc3ccccc3)cc12` (stereo not drawn) registered an IC50 in data set [4] of 1800 nM. For `CC1Cc2ccc(OC(=O)c3ccc(NC(=N)N)cc3)cc2OC1=O` (stereo not drawn), the IC50 in data set [4] came to 1500 nM. `CC#Cc1cncc(-c2ccc3c(c2)[C@]2(CO3)N=C(N)C[C@@H]2C(F)(F)F)c1` had an IC50 in data set [5] of 115 nM. In data set [6], `O=C1NC(=O)C2C=CNC2N1` (stereo not drawn) gave an IC50 of 30.3 µM.

In the case of `O=C1CSC2(CCN(CCCN3c4ccccc4Sc4ccc(Cl)cc43)CC2)N1` [SPICLOMAZINE], half-maximal inhibition in data set [4] (IC50) required 6600 nM.

In general, bioavailability refers to the share of a dose that reaches the circulation, judged against a reference dose that is usually intravenous. The low end stands for poor availability, the high end for good availability. What is called IC50 is the concentration needed to halve the response being measured.

Values taken from ChEMBL document CHEMBL4024743, “BACE-1 Inhibitors: From Recent Single-Target Molecules to Multitarget Compounds for Alzheimer's Disease” (J Med Chem, 2018).
